Like-named read-outs stand apart in the source and are kept apart here.
Tested on: cultured human mast cells (CHMC)
Assay: CHMC low cell density IgE activation: tryptase and LTC4 assays
Format: cell-based
Description: Pellet CHMC cells (980 rpm, 10 min) and resuspend in pre-warmed MT. Add 65 ul of cells to each 96-well plate. Depending on the degranulation activity for each particular CHMC donor, load 1000-1500 cells/well. Mix four times followed by a 1 hr incubation at 37° C. […] Stimulate cells by adding 25 ul of 6× anti-IgE solution to the appropriate plates. Add 25 ul MT to un-stimulated control wells. Mix twice following addition of the anti-IgE. Incubate at 37° C. for 30 minutes. […] Spin plates at 1000 rpm for 10 min to pellet cells. Transfer 25 ul of supernatant to a 96-well black bottom plate and add 100 ul of freshly diluted tryptase substrate solution to each well. Incubate plates at room temperature for 30 min.
Leukotriene C4 (LTC4) is also quantified using an ELISA kit on appropriately diluted supernatant samples (determined empirically for each donor cell population so that the sample measurement falls within the standard curve) following the supplier's instructions.

[1] = Homo sapiens, Mast cell, read-out: CHMC anti-IgE Tryptase
[2] = Homo sapiens, Mast cell, Low Density CHMC, anti-IgE activation, tryptase readout, read-out: CHMC anti-IgE Tryptase

SMILES | IC50 [2] | other results
Cc1ccc(Nc2ccnc(Nc3ccc(C)c([N+](=O)[O-])c3)n2)cc1[N+](=O)[O-] [Compound R950153, N2,N4-Bis(4-methyl-3-nitrophenyl)-2,4-pyrimidinediamine] | – | IC50 [1]: > 10 µM
COc1ccc(Nc2ncc(F)c(Nc3ccc(OC)c(C(=O)O)c3)n2)cc1C(=O)O [Compound R945067, N2,N4-Bis(3-carboxy-4-methoxyphenyl)-5-fluoro-2,4-pyrimidinediamine] | > 10 µM | –
COC(=O)c1cc(N)cc(Nc2ccnc(Nc3cc(N)cc(C(=O)OC)c3)n2)c1 [Compound R950132, N2,N4-Bis(3-amino-5-methoxycarbonylphenyl)-2,4-pyrimidinediamine] | 9 µM | –
Fc1cnc(NCc2ccco2)nc1NCc1ccco1 [Compound R925769, N2,N4-Bis(furfuryl)-5-fluoro-2,4-pyrimidinediamine] | > 10 µM | –
O=[N+]([O-])c1ccc(O)c(Nc2ccnc(Nc3cc([N+](=O)[O-])ccc3O)n2)c1 [Compound R950155, N2,N4-Bis(2-hydroxy-5-nitrophenyl)-2,4-pyrimidinediamine] | – | IC50 [1]: > 10 µM
CCOC(=O)C1CCN(C(=O)c2cccc(Nc3nc(Nc4cccc(O)c4)ncc3F)c2)CC1 [Compound R926940, N4-[3-[[4-(Ethoxycarbonyl)piperidino]carbonyl]phenyl]-5-fluoro-N2-(3-hydroxyphenyl)-2,4-pyrimidinediamine] | 7.75 µM | –
COC(=O)C1Cc2cc(Nc3ncc(F)c(Nc4ccc(OC)nc4OC)n3)ccc2O1 (racemic) [Compound R927032, (±)-N2-(2,3-Dihydro-2-methoxycarbonylbenzofuran-5-yl)-N4-(2,6-dimethoxypyridin-3-yl)-5-fluoro-2,4-pyrimidinediamine] | 0.899 µM | –
O=[N+]([O-])c1ccc(F)c(Nc2ncc(F)c(Nc3cc([N+](=O)[O-])ccc3F)n2)c1 [Compound R950147, N2,N4-Bis(2-fluoro-5-nitrophenyl)-5-fluoro-2,4-pyrimidinediamine] | – | IC50 [1]: > 10 µM
Cc1ccc(Nc2ccnc(Nc3ccc(C)c(N)c3)n2)cc1N [Compound R950130, N2,N4-Bis(3-amino-4-methylphenyl)-2,4-pyrimidinediamine] | 4.9 µM | –
CCOc1ccc(Nc2ccnc(Nc3ccc(OCC)c(N)c3)n2)cc1N [Compound R950142, N2,N4-Bis(3-amino-4-ethoxyphenyl)-2,4-pyrimidinediamine] | 10 µM | –
Nc1cccc(Nc2ccnc(Nc3cccc(N)c3)n2)c1 [Compound R950109, N2,N4-Bis(3-aminophenyl)-2,4-pyrimidinediamine] | 7.95 µM | –
Nc1ccc(F)c(Nc2ncc(F)c(Nc3cc(N)ccc3F)n2)c1 [Compound R950158, N2,N4-Bis(5-amino-2-fluorophenyl)-5-fluoro-2,4-pyrimidinediamine] | 9.98 µM | –
O=C(O)c1cc2cc(Nc3ncc(F)c(Nc4cccc(O)c4)n3)ccc2o1 [Compound R926478, N2-(2-Carboxybenzofuran-5-yl)-5-fluoro-N4-(3-hydroxyphenyl)-2,4-pyrimidinediamine] | > 10 µM | –
COCCNc1ncc(F)c(Nc2ccc3c(c2)OCCO3)n1 [Compound R926229, N4-(3,4-Ethylenedioxyphenyl)-5-fluoro-N2-(2-methoxyethyl)-2,4-pyrimidinediamine] | – | IC50 (Homo sapiens, Mast cell, Low Density CHMC, anti-IgE activation, hexosaminidase readout, read-out: CHMC anti-IgE Hexos.): > 10 µM
Cc1noc(C)c1Nc1ncc(F)c(Nc2ccc3c(c2)OCCO3)n1 [Compound R926744, N4-(3,4-Ethylenedioxyphenyl)-5-fluoro-N2-(3,5-dimethylisoxazol-4-yl)-2,4-pyrimidinediamine] | > 10 µM | –
CNC(=O)COc1cccc(Nc2ncc(F)c(Nc3cc(C)ccn3)n2)c1 [Compound R927016, 5-Fluoro-N2-[3-(N-methylamino)carbonylmethyleneoxyphenyl]-N4-(4-methylpyridin-2-yl)-2,4-pyrimidinediamine] | – | IC50 (Low Density CHMC, anti-IgE activation, tryptase readout, read-out: CHMC anti-IgE Tryptase): 1.41 µM
Cc1ccc([N+](=O)[O-])cc1Nc1ncc(F)c(Nc2cc([N+](=O)[O-])ccc2C)n1 [Compound R950146, N2,N4-Bis(2-methyl-5-nitrophenyl)-5-fluoro-2,4-pyrimidinediamine] | – | IC50 [1]: > 10 µM
